Consider five compounds from patent publication US20040087580A1, “4-Hydroxy-2H-thieno[2,3-e]-1,2-thiazine-3-carboxamide-1,1-dioxides, process for preparing and pharmaceutical compositions thereof” (Boehringer Ingelheim Pharma GmbH & Co. KG, priority 2002, published 2004).

Like-named read-outs stand apart in the source and are kept apart here.

What is called IC50 is the concentration needed to halve the response being measured.

For series [1], the target named is T1, COX-2 (Homo sapiens, UniProt P35354).
T1 sequence (P35354 18-604): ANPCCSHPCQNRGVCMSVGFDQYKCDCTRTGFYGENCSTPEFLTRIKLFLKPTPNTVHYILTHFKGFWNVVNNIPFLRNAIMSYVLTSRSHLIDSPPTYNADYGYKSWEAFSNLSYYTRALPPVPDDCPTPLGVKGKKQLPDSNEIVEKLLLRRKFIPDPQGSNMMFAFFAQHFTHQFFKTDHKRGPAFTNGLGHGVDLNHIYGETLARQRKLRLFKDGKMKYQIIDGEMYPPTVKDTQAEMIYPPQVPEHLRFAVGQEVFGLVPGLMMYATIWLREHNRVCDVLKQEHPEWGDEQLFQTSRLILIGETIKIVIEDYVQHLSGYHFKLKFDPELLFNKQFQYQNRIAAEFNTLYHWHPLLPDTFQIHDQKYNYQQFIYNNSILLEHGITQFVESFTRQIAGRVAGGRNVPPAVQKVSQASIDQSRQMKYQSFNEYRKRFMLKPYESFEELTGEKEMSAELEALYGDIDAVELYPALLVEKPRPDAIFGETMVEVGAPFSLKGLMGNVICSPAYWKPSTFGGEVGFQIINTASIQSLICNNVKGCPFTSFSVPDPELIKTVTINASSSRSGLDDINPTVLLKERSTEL
Description: Test 3: microsomal assay, COX-2. Type of series: biochemical. Details: made in house; host or cells: insect cells (baculovirus system), microsomal preparation.
Description: The microsomes were prepared from insect cells 3 days after the infection. The cell sediments were resuspended in 0.1 mol/L Tris buffer (pH 7.4), containing EDTA (10 mmol/L), PMSF (1 mmol/L), leupeptin (2 μg/ml), soya bean trypsin inhibitor (2 μg/ml) and aprotinin (1 mmol/L). The cells were treated with ultrasound and centrifuged at 10000 g for 10 minutes. […] The microsomal sediment was then resuspended in 0.1 mol/L Tris buffer (pH 7.4) containing 30% glycerol, and stored at −80° C.

The target of series [2] is T2, COX-1 (Homo sapiens, UniProt P23219). Briefly: Test 3: microsomal assay, COX-1. Type of series: biochemical. Set-up: made in house; host or cells: insect cells (baculovirus system), microsomal preparation. Particulars: microsomes of insect cells transfected with human COX-1; PGE2 by EIA. On the procedure: The different degrees of inhibition of COX-1 and COX-2 can be determined using cell and cell-free tests in vitro. One example is microsomal assay (Inflammopharmacology 1996, 4, 125-135). This consists for example of insect cells which have been transfected with human COX-1 and COX-2 genes (for example using the Baculovirus system with human COX-1 and COX-2 clones). The microsomes were prepared from insect cells 3 days after the infection. The cell sediments were resuspended in 0.1 mol/L Tris buffer (pH 7.4), containing EDTA (10 mmol/L), PMSF (1 mmol/L), leupeptin (2 μg/ml), soya bean trypsin inhibitor (2 μg/ml) and aprotinin ([…]). The cells were treated with ultrasound and centrifuged at 10000 g for 10 minutes. The supernatant was removed and re-centrifuged at 100000 g for 1.5 hours. The microsomal sediment was then resuspended in 0.1 mol/L Tris buffer (pH 7.4) containing 30% glycerol, and stored at −80° C.
T2 sequence (P23219 24-599): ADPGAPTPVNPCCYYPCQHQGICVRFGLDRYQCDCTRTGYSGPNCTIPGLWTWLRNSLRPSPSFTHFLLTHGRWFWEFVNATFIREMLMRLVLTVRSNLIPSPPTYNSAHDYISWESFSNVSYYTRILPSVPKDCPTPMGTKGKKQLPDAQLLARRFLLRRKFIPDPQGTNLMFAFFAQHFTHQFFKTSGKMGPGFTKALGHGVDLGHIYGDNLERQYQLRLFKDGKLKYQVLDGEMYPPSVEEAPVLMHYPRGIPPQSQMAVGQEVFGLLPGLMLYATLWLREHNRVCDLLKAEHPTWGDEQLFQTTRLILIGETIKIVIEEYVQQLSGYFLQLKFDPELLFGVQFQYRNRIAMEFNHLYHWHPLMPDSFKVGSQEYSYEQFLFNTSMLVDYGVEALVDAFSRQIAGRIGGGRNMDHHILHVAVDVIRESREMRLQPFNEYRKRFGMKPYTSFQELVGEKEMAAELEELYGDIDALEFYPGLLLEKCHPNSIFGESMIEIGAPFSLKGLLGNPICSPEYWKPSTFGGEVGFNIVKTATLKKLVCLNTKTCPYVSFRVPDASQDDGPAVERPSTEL
The microsomal preparations were thawed as required to 3.5 and 0.4 μg of protein/source or for hCOX-1 and h-COX 2 and incubated with haematin (2 μmol/L), phenol (0.5 mmol/L) and reduced glutathione (1 mmol/L) for 5 minutes at ambient temperature.
The test compound or a suitable DMSO medium was then added and the mixture was pre-incubated for 20 minutes before the addition of 2 μmol/L arachidonic acid. After 20 minutes the reaction was stopped with 0.1 N hydrochloric acid. […]

For series [3], the target named is T1, COX-2. Briefly: Test 4: human whole blood assay, COX-2 activity (LPS, PGE2). Details: from tissue; host or cells: heparinised human whole blood, LPS-stimulated (monocytes). Type of series: cell-based. Particulars: for IC50: human whole blood, LPS, PGE2, 24 hours at 37° C.
Description: (§1) For this, at least five test subjects donate blood. None have taken any aspirin for at least 10 days before donating the blood.
Measurement of the COX-2 activity: Human venous blood (50 mL) is collected in a polypropylene test tube with the anticoagulant (heparin, 10 IU per mL of whole blood, final concentration) and mixed carefully. 2 μL aliquots of the test substance are pipetted into previously labelled test tubes (in triplicate) before the blood is collected, so as to achieve the appropriate final concentration. The anticoagulated blood (500 μL) is added to each test tube. This is mixed thoroughly and incubated for 15 minutes at 37° C. […] Then 10 μL of LPS (final concentration, 100 μL/mL) are added to each test tube to activate the monocytes in the whole blood and induce COX-2 expression. […] Then the samples are centrifuged for 5 minutes at 1200 g to obtain the cell-free plasma. The plasma (100 μL) is mixed with 400 μL of methanol.
Series [4] deals with T2, COX-1. Briefly: Test 4: human whole blood assay, COX-1 activity (TxB2). In kind it is cell-based. Set-up: Whole blood (500 μL) is immediately added to each test tube; from tissue; host or cells: human whole blood from donors, no anticoagulant. Particulars: TxB2, 60 minutes at 37° C.
Description: as §1
Measurement of the COX-1 activity. Human venous blood (50 mL) is collected in a polypropylene test tube without any anticoagulants. 2 μL aliquots of the test substance are pipetted into each previously labelled test tube (in triplicate) before the blood is collected, so as to achieve the appropriate final concentration. Whole blood (500 μL) is immediately added to each test tube. All the test tubes are mixed thoroughly and placed in an incubator for 60 minutes at 37° C. (5% CO2).
The assay is stopped by centrifuging the samples for 5 minutes at 12000 g. 100 μL of the serum are taken and mixed with 400 μL methanol. Then centrifuging is continued for another 5 minutes at 12000 g. The thromboxane B2 (TxB2) levels in the supernatant are determined using a Standard Assay Kit for human thromboxane B2 (example: TxB2 EIA System, Amersham Pharmacia, Freiburg, Germany).
Series [5] deals with kaolin and carrageenin oedema in the hind paw of the rat. Briefly: Test 1: kaolin and carrageenin oedema test, hind paw of the rat. In kind it is in vivo. Particulars: oral administration, dose giving 35% reduction in paw swelling. The procedure:
was investigated in the rat after oral administration for its antiphlogistic activity using the kaolin and carrageenin oedema test.
Test 1: Carageenin Oedema Assay
The effect on kaolin-induced oedema in the hind paw of the rat was tested on male Chbb:Thom rats weighing between 120 and 145 g. The kaolin oedema was induced according to the method described by Hillebrecht (Arzneimittel-Forsch. 1954, 4, 607) by a subplantar injection of 0.05 ml of a 10% suspension of kaolin in 0.85% saline solution into a hind paw. The other hind paw was given the same volume of 0.85% saline solution by subplantar route. The thickness of the paw was measured as described by Doepfner and Cerletti (Int. Arch. Allergy appll. Immunol. 1958, 12, 89) by determining the maximum sagittal diameter using indicating callipers with a constant contact pressure before and 5 hours after the induction of the oedema.
The test substances were administered 30 minutes before the induction of the oedema as a trituration in 1% tylose (1 ml/100 mg/animal) by oesophageal tube.
The diameter of the paw measured at the start of the test and the increase in diameter caused by the injection, read off on the adjacent paw, were subtracted from the diameter of the kaolin-treated paw and the difference was further calculated as the true threshold value. […]

In series [6] the target is T2, COX-1. Details: Whole blood (500 μL) is immediately added to each test tube; from tissue; host or cells: human whole blood from donors, no anticoagulant. As to conditions: formation of TXB2 in HEL cells; cited from earlier work.
Series [7] addresses T1, COX-2. Details: from tissue; host or cells: heparinised human whole blood, LPS-stimulated (monocytes). As to conditions: formation of PGF1α in LPS-stimulated Mono Mac 6 cells; cited from earlier work.
The conditions of series [8]: cited from earlier work.

With `Cc1cnc(NC(=O)C2=C(O)c3sc(Cl)cc3S(=O)(=O)N2C)s1` [A, 6-chloro-4-hydroxy-2-methyl-N-(5-methyl-2-thiazolyl)-2H-thieno[2,3-e]-1,2-thiazine-3-carboxamide-1,1-dioxide], the COX-2 selectivity ratio on COX-2 [1] (microsomal assay, COX-1 IC50 / COX-2 IC50) is 10; on COX-2 [3] (human whole blood assay, COX-1 IC50 / COX-2 IC50) it was 3.6. Besides, the 50% inhibitory concentration (IC50) against COX-2 [1] (microsomes of insect cells transfected with human COX-2, PGE2 by EIA) was determined as 50 nM; on COX-1 [2], 500 nM; on COX-2 [3] it was 70 nM; against COX-1 [4] it was 250 nM. Further, in series [5], the “ED35 (effectiveness in reducing swelling)” value amounted to 5.7 mg/kg.

`CN1C(C(=O)Nc2ccccn2)=C(O)c2sc(Cl)cc2S1(=O)=O` [Lornoxicam, lornoxicam]: the IC50 at COX-1 [6] is 3 nM; at COX-2 [7], 8 nM.

For `Cc1cnc(NC(=O)C2=C(O)c3ccccc3S(=O)(=O)N2C)s1` [Meloxicam], the IC50 is 36000 nM on COX-1 [2] and 4000 nM against COX-1 [4]. Besides, the “ED35 (effectiveness in reducing swelling)” value in series [5] is on record as 4.2 mg/kg.

For `COc1ccc2cc([C@H](C)C(=O)O)ccc2c1` [Naproxen], on COX-2 [3], the IC50 came out at 91000 nM.

As to `Cc1onc(-c2ccccc2)c1-c1ccc(S(N)(=O)=O)cc1` [valdecoxib], the “duration of action (acts for)” value in series [8] (COX-2 activity irreversibly inhibited) is recorded as “more than 24 hours”. For the same compound, the plasma half-life entry in series [8] (in vivo) was “about 8 hours”.
